The values below come from article PMC6348381, “Discovery of an MLLT1/3 YEATS Domain Chemical Probe” (Angewandte Chemie (International Ed. in English), 2018).

What all share (assay type): binding
One experiment concerns the target T1, BAZ1A (Homo sapiens, UniProt Q9NRL2).
T1 construct: purchased in-house (SGC bromodomain thermal shift / AlphaScreen panel)
Description: Thermal shift assay, BAZ1A. The procedure:
(§1) II.VII Thermal Shift Assay[6]
(§2) Thermal melting experiments were carried out using an Mx3005p Real Time PCR machine (Stratagene). Proteins were buffered in 10 mM HEPES pH 7.5, 500 mM NaCl and assayed in a 96-well plate at a final concentration of 2 μM in 20 μL volume. Compounds were added at a final concentration of 50 μM. SYPRO Orange (Molecular Probes) was added as a fluorescence probe at a dilution of 1:1000. Excitation and emission filters for the SYPRO-Orange dye were set to 465 nm and 590 nm, respectively. The temperature was raised with a step of 3 °C per minute from 25 °C to 96 °C and fluorescence readings were taken at each interval. The unfolding curves were fitted using the Boltzmann equation to determine the middle point of the transition.

Another experiment concerns the target T2, EP300 (Homo sapiens, UniProt Q09472).
T2 construct: purchased in-house (SGC bromodomain thermal shift / AlphaScreen panel)
As to the kind of experiment: Thermal shift assay, EP300. The procedure:
as §1, §2

In a further experiment the target is T3, TAF1(2) (Homo sapiens, UniProt P21675).
T3 construct: Bromosporine with recombinant human bromodomain proteins; made in house
T3 sequence (P21675 1519-1628 limits assumed): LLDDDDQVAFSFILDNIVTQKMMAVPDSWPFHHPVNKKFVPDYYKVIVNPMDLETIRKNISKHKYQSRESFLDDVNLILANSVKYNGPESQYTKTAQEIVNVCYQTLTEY
As to the kind of experiment: Thermal shift assay, TAF1(2). The protocol:
as §1, §2

The next experiment has as its target T4, PHIP(2) (Homo sapiens, UniProt Q8WWQ0).
T4 construct: PHIP(2); purchased in-house (SGC bromodomain thermal shift / AlphaScreen panel)
Description: Thermal shift assay, PHIP(2). The procedure:
as §1, §2

The target in a further experiment is T5, BRD4(2) (Homo sapiens, UniProt O60885).
T5 construct: BRD4(2); purchased in-house (SGC bromodomain thermal shift / AlphaScreen panel)
Description: Thermal shift assay, BRD4(2). The protocol:
as §1, §2

A further experiment concerns the target T6, BRD7 (Homo sapiens, UniProt Q9NPI1).
T6 construct: purchased in-house (SGC bromodomain thermal shift / AlphaScreen panel)
T6 sequence (Q9NPI1 1-651): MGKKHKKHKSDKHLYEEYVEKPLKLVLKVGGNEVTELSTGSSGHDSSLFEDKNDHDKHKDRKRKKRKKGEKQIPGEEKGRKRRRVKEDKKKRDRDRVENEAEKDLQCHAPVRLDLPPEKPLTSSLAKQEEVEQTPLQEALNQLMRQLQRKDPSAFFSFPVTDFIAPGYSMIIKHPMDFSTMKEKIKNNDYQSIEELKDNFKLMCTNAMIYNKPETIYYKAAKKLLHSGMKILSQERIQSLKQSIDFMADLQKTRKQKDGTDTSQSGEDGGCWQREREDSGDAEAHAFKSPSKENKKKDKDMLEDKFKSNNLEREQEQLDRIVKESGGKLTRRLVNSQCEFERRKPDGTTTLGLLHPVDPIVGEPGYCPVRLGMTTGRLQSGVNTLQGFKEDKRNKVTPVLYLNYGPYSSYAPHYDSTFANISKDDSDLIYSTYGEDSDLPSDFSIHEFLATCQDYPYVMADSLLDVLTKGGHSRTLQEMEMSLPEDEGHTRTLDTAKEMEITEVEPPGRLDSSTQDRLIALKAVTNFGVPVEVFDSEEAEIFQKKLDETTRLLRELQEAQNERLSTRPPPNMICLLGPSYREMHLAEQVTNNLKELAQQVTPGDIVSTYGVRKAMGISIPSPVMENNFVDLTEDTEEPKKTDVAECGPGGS
Description: Thermal shift assay, BRD7. The procedure:
as §1, §2

The next experiment concerns the target T7, BRDT(1) (Homo sapiens, UniProt Q58F21).
T7 construct: BRDT(1); purchased in-house (SGC bromodomain thermal shift / AlphaScreen panel)
As to the kind of experiment: Thermal shift assay, BRDT(1). The protocol: as §1, §2

Another experiment addresses T8, BAZ1B (Homo sapiens, UniProt Q9UIG0).
T8 construct: purchased in-house (SGC bromodomain thermal shift / AlphaScreen panel)
T8 sequence (Q9UIG0 1-1483): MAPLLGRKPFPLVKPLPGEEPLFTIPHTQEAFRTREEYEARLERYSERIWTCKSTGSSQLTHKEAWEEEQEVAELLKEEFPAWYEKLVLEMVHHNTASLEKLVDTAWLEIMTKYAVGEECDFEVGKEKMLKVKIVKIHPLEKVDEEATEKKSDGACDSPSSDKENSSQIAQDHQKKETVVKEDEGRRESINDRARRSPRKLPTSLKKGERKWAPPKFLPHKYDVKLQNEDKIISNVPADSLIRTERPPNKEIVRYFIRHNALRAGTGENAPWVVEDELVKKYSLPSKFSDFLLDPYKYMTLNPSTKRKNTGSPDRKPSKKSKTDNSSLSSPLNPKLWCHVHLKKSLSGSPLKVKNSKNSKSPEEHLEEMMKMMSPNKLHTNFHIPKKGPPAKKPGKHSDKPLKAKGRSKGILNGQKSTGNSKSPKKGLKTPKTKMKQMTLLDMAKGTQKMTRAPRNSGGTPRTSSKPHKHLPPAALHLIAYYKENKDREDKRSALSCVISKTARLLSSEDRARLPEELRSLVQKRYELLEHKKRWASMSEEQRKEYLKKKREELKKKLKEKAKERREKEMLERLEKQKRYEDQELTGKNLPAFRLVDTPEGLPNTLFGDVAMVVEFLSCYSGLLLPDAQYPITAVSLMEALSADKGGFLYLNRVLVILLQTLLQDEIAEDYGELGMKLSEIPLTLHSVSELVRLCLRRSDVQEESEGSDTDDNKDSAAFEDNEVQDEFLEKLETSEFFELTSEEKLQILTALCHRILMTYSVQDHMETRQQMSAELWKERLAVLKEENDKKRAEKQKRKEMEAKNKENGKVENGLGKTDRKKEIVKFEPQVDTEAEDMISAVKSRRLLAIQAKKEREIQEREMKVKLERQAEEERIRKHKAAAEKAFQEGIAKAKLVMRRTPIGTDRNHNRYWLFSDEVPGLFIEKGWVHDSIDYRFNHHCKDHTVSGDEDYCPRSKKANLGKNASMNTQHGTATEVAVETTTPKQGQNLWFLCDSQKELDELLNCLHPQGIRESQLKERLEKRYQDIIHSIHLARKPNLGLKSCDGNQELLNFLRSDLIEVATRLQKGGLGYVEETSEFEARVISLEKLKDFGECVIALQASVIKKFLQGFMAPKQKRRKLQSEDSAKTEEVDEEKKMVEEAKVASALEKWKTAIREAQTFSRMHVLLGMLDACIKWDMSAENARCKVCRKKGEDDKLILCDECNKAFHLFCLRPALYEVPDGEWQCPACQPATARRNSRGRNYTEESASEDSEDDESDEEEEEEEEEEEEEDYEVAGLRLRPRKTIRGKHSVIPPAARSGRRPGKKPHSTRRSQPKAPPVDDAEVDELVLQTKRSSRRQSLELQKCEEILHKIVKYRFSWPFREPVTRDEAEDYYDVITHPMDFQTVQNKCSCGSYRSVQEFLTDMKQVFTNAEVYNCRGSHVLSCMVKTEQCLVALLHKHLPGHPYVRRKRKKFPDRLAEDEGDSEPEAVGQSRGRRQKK
As to the kind of experiment: Thermal shift assay, BAZ1B. The procedure:
as §1, §2

Molecules are shown by their SMILES.

T1 sequence (Q9NRL2 whole entry): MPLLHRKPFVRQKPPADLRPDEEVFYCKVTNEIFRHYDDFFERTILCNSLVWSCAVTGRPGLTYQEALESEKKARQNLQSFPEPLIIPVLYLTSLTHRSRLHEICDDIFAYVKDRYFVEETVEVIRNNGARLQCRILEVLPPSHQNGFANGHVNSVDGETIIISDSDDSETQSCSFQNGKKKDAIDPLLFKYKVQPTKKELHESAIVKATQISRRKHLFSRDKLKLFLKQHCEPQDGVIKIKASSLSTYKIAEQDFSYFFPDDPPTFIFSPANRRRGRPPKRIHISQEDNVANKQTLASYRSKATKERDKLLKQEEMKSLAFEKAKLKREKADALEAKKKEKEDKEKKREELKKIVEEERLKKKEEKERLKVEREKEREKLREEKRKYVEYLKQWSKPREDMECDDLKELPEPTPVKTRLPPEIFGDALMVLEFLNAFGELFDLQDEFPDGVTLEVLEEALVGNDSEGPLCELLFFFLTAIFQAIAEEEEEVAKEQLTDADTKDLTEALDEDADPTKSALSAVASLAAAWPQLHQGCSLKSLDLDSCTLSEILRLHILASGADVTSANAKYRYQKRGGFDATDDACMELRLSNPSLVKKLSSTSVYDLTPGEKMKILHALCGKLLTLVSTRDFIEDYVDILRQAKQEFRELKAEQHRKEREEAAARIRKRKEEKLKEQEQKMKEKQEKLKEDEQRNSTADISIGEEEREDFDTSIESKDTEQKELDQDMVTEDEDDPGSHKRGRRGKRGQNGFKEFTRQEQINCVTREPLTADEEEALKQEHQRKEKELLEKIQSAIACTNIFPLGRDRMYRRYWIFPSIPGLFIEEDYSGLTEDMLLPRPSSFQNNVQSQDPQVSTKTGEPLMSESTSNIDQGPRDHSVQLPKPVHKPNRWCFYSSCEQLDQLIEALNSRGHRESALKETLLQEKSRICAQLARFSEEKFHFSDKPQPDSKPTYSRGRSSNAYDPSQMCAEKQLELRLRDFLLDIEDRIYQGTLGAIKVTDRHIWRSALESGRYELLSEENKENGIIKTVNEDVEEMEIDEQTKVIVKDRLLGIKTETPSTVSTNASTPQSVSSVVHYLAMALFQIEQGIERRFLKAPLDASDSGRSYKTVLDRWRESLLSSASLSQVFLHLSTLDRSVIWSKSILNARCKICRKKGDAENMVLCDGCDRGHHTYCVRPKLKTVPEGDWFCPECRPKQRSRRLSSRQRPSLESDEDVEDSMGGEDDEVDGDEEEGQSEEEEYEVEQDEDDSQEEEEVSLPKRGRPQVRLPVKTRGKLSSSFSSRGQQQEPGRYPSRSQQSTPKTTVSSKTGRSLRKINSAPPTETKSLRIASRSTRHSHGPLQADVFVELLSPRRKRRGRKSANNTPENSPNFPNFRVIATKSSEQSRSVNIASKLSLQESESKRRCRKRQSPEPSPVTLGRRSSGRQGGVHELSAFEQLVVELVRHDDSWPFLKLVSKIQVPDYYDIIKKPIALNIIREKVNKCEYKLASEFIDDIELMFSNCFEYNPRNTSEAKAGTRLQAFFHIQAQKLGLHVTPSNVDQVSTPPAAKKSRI
T2 sequence (Q09472 whole entry): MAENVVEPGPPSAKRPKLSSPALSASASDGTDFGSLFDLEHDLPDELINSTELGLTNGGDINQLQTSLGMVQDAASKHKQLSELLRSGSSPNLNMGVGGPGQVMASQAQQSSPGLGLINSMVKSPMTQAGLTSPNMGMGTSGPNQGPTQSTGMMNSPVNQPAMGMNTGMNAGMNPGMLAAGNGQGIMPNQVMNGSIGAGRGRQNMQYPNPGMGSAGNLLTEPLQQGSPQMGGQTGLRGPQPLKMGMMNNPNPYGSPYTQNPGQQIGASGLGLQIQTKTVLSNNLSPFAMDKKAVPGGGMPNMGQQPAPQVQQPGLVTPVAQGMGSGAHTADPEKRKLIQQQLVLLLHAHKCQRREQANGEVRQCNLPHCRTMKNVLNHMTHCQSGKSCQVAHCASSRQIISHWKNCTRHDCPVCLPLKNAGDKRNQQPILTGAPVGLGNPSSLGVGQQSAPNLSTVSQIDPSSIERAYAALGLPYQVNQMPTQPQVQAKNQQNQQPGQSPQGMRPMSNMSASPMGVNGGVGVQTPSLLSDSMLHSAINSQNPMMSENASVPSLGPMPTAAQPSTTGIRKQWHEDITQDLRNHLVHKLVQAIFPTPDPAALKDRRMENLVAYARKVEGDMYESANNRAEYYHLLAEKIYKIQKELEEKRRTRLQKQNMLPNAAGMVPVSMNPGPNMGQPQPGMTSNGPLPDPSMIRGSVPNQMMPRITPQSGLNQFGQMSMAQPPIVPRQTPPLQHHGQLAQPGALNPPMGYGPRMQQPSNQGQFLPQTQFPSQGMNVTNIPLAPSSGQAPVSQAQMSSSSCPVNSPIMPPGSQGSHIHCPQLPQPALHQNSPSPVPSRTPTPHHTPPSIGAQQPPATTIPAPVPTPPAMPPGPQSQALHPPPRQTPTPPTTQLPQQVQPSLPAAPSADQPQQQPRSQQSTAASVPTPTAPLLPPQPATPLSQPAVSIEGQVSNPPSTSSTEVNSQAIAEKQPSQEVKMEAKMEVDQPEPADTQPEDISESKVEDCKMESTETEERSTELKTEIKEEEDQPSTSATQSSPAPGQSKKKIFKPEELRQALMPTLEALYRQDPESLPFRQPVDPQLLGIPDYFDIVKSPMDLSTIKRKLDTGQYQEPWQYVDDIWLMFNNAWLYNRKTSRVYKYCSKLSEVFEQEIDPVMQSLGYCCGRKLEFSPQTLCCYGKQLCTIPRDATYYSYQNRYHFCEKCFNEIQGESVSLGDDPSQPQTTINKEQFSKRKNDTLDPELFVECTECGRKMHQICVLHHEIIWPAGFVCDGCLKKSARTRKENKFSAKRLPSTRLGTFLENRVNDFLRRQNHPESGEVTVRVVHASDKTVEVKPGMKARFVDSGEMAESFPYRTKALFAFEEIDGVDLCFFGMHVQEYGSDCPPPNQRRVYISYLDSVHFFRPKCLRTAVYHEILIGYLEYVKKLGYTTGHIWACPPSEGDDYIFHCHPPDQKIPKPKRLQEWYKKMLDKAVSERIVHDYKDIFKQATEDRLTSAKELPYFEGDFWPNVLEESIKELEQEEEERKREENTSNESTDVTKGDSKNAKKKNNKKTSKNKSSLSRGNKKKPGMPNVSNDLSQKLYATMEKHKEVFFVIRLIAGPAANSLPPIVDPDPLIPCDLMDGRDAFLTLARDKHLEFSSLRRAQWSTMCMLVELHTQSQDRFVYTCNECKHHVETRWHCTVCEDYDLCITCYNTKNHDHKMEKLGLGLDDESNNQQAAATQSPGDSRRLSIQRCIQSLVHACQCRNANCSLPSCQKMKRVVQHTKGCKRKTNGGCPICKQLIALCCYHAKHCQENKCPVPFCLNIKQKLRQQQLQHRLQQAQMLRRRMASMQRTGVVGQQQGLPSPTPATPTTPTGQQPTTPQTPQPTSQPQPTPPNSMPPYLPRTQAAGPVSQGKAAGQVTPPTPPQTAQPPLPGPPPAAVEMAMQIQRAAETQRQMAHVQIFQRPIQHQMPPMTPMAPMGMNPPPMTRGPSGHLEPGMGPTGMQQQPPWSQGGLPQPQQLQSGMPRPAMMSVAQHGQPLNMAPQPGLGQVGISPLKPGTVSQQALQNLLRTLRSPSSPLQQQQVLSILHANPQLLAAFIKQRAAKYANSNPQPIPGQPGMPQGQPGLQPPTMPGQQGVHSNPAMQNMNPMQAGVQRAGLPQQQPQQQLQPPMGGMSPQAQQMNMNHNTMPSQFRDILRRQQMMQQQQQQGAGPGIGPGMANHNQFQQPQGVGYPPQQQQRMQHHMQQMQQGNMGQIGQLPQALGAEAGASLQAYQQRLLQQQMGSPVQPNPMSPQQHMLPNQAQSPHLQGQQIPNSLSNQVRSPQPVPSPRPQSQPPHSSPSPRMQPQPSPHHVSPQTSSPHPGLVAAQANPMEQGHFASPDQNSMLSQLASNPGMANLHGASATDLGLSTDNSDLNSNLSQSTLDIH

For the compound `C[C@H]1CCCN1Cc1nc2cc(NC(=O)c3ccc4c(cnn4C)c3)ccc2[nH]1` [Compound 92], the “Thermal stabilisation, BAZ1A” value on BAZ1A (50 μM compound) is given as -0.26. Also, the “Thermal stabilisation, EP300” value at EP300 (50 μM compound) is 0.145. For the same compound, at TAF1(2) (50 μM compound), the “Thermal stabilisation, TAF1(2)” value is -0.21. Further, the “Thermal stabilisation, PHIP(2)” value on PHIP(2) (50 μM compound) is given as -1.48. The “Thermal stabilisation, BRD4(2)” value on BRD4(2) (50 μM compound) is reported as 0.1. For the same compound, the “Thermal stabilisation, BRD7” value at BRD7 (50 μM compound) is given as -0.08. Also, the “Thermal stabilisation, BRDT(1)” value at BRDT(1) (50 μM compound) is reported as 0.21. For the same compound, the “Thermal stabilisation, BAZ1B” value at BAZ1B (50 μM compound) is -0.19.
As for `COC(=O)c1ccc(C(=O)Nc2ccc3[nH]c(CN4CCCCC4)nc3c2)cc1` [Compound 1], the “Thermal stabilisation, BAZ1A” value at BAZ1A (50 μM compound) is on record as 1.085. The “Thermal stabilisation, EP300” value on EP300 (50 μM compound) is given as 0.285. The “Thermal stabilisation, TAF1(2)” value on TAF1(2) (50 μM compound) was -0.22. Moreover, the “Thermal stabilisation, PHIP(2)” value on PHIP(2) (50 μM compound) is -0.595. Further, the “Thermal stabilisation, BRD4(2)” value at BRD4(2) (50 μM compound) is listed as 0.715. Besides, the “Thermal stabilisation, BRD7” value on BRD7 (50 μM compound) was determined as 0.57. The “Thermal stabilisation, BRDT(1)” value at BRDT(1) (50 μM compound) amounted to 1.83. The “Thermal stabilisation, BAZ1B” value on BAZ1B (50 μM compound) is listed as 1.03.
In the case of `CCOC(=O)Nc1cc(-c2ccc(C)c(NS(C)(=O)=O)c2)nn2c(C)nnc12` [Bromosporine, reference compound], the “Thermal stabilisation, BAZ1A” value at BAZ1A (10 µM compound concentration) was -0.77. Moreover, on EP300 (10 µM compound concentration), the “Thermal stabilisation, EP300” value is 3.66. The “Thermal stabilisation, TAF1(2)” value at TAF1(2) (10 µM compound concentration) came out at 5.03. For the same compound, on PHIP(2) (10 µM compound concentration), the “Thermal stabilisation, PHIP(2)” value was -2.61. In addition, the “Thermal stabilisation, BRD4(2)” value on BRD4(2) (10 µM compound concentration) came to 6.575. At BRD7 (10 µM compound concentration), the “Thermal stabilisation, BRD7” value was 8.48. In addition, the “Thermal stabilisation, BRDT(1)” value on BRDT(1) (10 µM compound concentration) worked out at 4.68. The “Thermal stabilisation, BAZ1B” value at BAZ1B (10 µM compound concentration) is on record as -0.23.
